Assay results: EP0127426A1, “Percutaneous pharmaceutical compositions for external use” (Takeda Chemical Industries, Ltd., priority 1983, dated 1984)
Read-outs that look alike come from different tables or passages of the source. Each block holds one compound with its values, some of them ahead of it.

Assays:
[1] = rat, in vivo
Procedure: SD-JCL male rats with an average body weight of 250 g were used as test animals. Under pentobarbital anesthesia, the abdomen of each animal was clipped off hairs (20 cm^2: 5 x 4 cm) with an electric clipper and the sample was applied to the denuded area. Using 5 rats, 0.12 ml of venous blood was taken from the tail vein 1, 2, 4 and 6 hours after application of the sample. Each blood specimen was centrifuged and 0.05 ml of the plasma was put in a polyethylene minivial containing 5 ml of a toluenic scintillator and stirred. After standing, the total radioactivity of the plasma sample was measured with a β-ray scintillation spectrometer and the TRH equivalent concentration of the plasma (µg.eq./ml) was calculated.
The percutaneous absorption of TRH tartrate was evaluated in AUC6 (the area under the blood concentration-time curve during 0 to 6 hours).

[2] = in vivo; details: male, SD-JCL, rat, topical or ocular
[3] = Percutaneous absorption test in rats, TRH equivalent plasma concentration from total radioactivity (3H-labeled TRH); type: in vivo, SD-JCL male rats; details: additive in propylene glycol preparation of TRH tartrate (Comparative Example 2)
[4] = rat, in vivo; remark: listed apart in the source
Procedure: 3 mg of clonidine, an antihypertensive drug, was dissolved in a mixture of 20 mg of lauric acid, one of the percutaneous absorption promoting agents according to this invention, and 177 mg of propylene glycol to prepare a coating sample.
A percutaneous absorption test was carried out in male SD-JCL rats with an average body weight of 250 g. Under pentobarbital anesthesia, the abdomen of each rat was clipped of hairs with an electric clipper and the sample was coated on the denuded abdominal area (5 x 4 cm).
The collected venous blood was centrifuged and 0.2 ml of the plasma was extracted with 1 ml of 0.01 N-NaOH and 5 ml of chloroform. From a 4 ml portion of the chloroform layer, the chloroform was distilled off and the residue was dissolved by addition of 0.2ml of 0.05 M sodium acetate-acetonitrile-tetrahydrofuran (70:30:0.2, v/v). A 50 µl portion of the solution was applied to a liquid chromatograph to determine the concentration of clonidine. The µ-Bondapak Cl8 column was used for this liquid chromatography. The percutaneous absorption of clonidine was evaluated in terms of AUC6 (area under the blood concentration-time curve of clonidine during 0 to 6 hours) and its multiple over the [formula] of the preparation of Comparative Example 1 was calculated.

[5] = Percutaneous absorption test in rats, TRH equivalent plasma concentration from total radioactivity (3H-labeled TRH)

Compound: NC(=O)C1CCCN1C(=O)C(Cc1c[nH]cn1)NC(=O)C1CCC(=O)O1 [DN-1417, y-butyrolactone-y-carbonyl-L-histidyl-L-prolinamide]
AUC6 (the area under the blood concentration-time curve during 0 to 6 hours) [1]: 0.3 ug.eq.hr/ml

Compound: CCNC(=O)[C@@H]1CCCN1C(=O)[C@H](CCCNC(=N)N)NC(=O)[C@H](CC(C)C)NC(=O)[C@@H](CC(C)C)NC(=O)[C@H](Cc1ccc(O)cc1)NC(=O)[C@H](CO)NC(=O)[C@H](Cc1c[nH]c2ccccc12)NC(=O)[C@H](Cc1c[nH]cn1)NC(=O)[C@@H]1CCC(=O)N1 [TAP-144]
AUC(0-t) [2]: 0.5 ng·h/mL

Compound: CCCCCCCC/C=C\CCCCCCCC(N)=O [oleamide]
effectiveness of the percutaneous absorption promoting agent for clonidine [4]: ineffective

Compound: L-pyroglutamyl-L-histidyl-L-prolinamide [TRH tartrate]
AUC6 (the area under the blood concentration-time curve during 0 to 6 hours) ([5]; Comparative Example 1 (TRH tartrate in propylene glycol, no absorption promoter), restated in Example 5): 0.16 ug.eq.hr/ml
AUC6 (the area under the blood concentration-time curve during 0 to 6 hours) ([5]; Comparative Example 6: 0.8 mg TRH tartrate in 179.2 mg propylene glycol + 20 mg caprylyl alcohol (C8)): 0.19 pg.eq/ml
multiple of the AUC6 value over the control preparation of Comparative Example 1 ([5]; Example 1 preparation (20 mg oleic acid) vs Comparative Example 1 (no absorption promoter)): approximately 8 times
multiple of the AUC6 value over the control preparation of Comparative Example 1 ([5]; Example 3 (20 mg lauric acid, ethanol wiping) vs Comparative Example 1): 14 times
AUC6 (the area under the blood concentration-time curve during 0 to 6 hours) ([5]; Example 3: 0.8 mg TRH tartrate in 179.2 mg propylene glycol + 20 mg lauric acid, site wiped 5 times with ethanol-sanitary cotton before application): 2.22 µg.eq.hr/ml
multiple of the AUC6 value over the control preparation of Comparative Example 1 ([5]; Example 4 (20 mg lauric acid, horny layer stripped) vs Comparative Example 1): 38 times
AUC6 (the area under the blood concentration-time curve during 0 to 6 hours) ([5]; Example 4: 0.8 mg TRH tartrate in 179.2 mg propylene glycol + 20 mg lauric acid, horny layer stripped 3 times with cellophane tape before application): 6.06 ug.eq.hr/ml

Compound: L-pyroglutamyl-L-histidyl-L-prolinamide [TRH]
multiple of the AUC6 value over Comparative Example 1 ([5]; Example 5 (TRH, 30 mg oleic acid) vs Comparative Example 1): 8.7 times
AUC6 (the area under the blood concentration-time curve during 0 to 6 hours) ([5]; Example 5: 0.5 mg TRH in 169.5 mg propylene glycol + 30 mg oleic acid): 1.4 µg.eq.hr/ml

Now from value to compound:

absorption promoting effect of the additive [3]: no absorption promoting effect
Compound: CCCCCCCCCCCCCC(=O)OC(C)C [isopropyl myristate]

effectiveness of the percutaneous absorption promoting agent for clonidine [4]: ineffective
Compound: CCCCCCCCCCCC(=O)O [lauric acid]

effectiveness of the percutaneous absorption promoting agent for clonidine [4]: ineffective
Compound: CCCCCCCCCCCCN [laurylamine]

effectiveness of the percutaneous absorption promoting agent for clonidine [4]: ineffective
Compound: CCCCCCCC/C=C\CCCCCCCC(=O)O [oleic acid]
